Data: article PMC10961402, “Safety, tolerability, pharmacokinetics and pharmacokinetic-pharmacodynamic modeling of cetagliptin in patients with type 2 diabetes mellitus” (Frontiers in Endocrinology, 2024)
Read-outs that look alike come from different tables or passages of the source.

Columns and labels:
[1] = parameters: method as in PMID 34655432; settings: healthy subjects; single oral doses of 12.5 to 400 mg; cited from earlier work
plasma DPP-4 activity = molecular target: T1, plasma DPP-4 activity (Homo sapiens, UniProt P27487); assay: Plasma DPP-4 inhibition relative to baseline (fluorescent method, Gly-Pro-7-amide-4-methylcoumarin); type: in vivo; settings: patients with T2DM; for DPP-4 inhibition TRmax,ss / DPP-4 inhibition TRmax: median (range)
T1 construct: from tissue; host or cells: human plasma (K2-EDTA blood from T2DM patients)
T1 sequence (P27487 39-766 limits assumed): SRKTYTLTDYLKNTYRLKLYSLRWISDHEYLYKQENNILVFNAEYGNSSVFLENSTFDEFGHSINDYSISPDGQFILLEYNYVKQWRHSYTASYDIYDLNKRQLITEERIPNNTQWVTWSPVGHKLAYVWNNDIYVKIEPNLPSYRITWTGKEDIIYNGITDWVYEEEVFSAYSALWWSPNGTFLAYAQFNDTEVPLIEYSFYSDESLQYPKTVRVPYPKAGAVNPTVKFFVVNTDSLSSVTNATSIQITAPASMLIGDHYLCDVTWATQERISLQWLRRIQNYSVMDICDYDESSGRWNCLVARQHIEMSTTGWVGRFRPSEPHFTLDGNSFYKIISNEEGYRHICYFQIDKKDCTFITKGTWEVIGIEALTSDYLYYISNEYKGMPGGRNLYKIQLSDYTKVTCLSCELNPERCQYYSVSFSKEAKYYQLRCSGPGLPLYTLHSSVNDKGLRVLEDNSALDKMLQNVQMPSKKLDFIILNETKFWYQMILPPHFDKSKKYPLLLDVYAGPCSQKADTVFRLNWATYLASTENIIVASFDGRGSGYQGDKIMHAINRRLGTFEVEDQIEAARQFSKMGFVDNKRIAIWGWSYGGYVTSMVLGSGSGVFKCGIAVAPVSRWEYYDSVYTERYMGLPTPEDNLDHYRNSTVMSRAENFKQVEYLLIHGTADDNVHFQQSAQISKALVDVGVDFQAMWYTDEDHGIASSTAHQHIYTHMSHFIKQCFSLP
Procedure: Blood samples for DPP-4 activity determination were collected at the same time points as for PK. 1 mL blood samples were collected into blood-collecting tubes containing K2-EDTA. The tubes were placed on ice until centrifugation. The blood samples were centrifuged at 2-8°C, 1500 g for 10 min within 1 hour after blood collection. After centrifugation, the supernatant were evenly divided into two aliquots and stored at -80 ± 10°C. The plasma DPP-4 activity was determined using a fluorescent method with the substrate Gly-Pro-7-amide-4-methylcoumarin. A range of 3-400 µM was covered by the linear calibration.
The degree of inhibition of DPP-4 enzyme activity relative to baseline (DPP-4 inhibition, %) after administration was calculated as the following equation:
DPP−4 inhibition (%)=(1−DPP−4 activity/DPP−4 activity,Baseline)×100

[2] = in vivo
Text: A population PK/PD (PopPK/PD) model was developed to describe the relationship between cetagliptin and DPP-4 inhibition. A sequential two-step analysis approach to modeling building was implemented. First, a population PK model was developed, and then parameters were fixed to establish the PopPK/PD model. The nonlinear mixed effect modeling method was used to establish the PopPK/PD model. Model selection criteria were based on goodness-of-fit plots, objective function value (OFV, equal to −2 log-likelihood), Akaike information criteria (AIC), and precision of parameter estimates.
A total of 560 plasma concentrations of cetagliptin from 32 patients with T2DM were used for PopPK analysis. The structural model was tested using either one- or two-compartment PK models. […]
The additive error model (Equation 2), proportional error model (Equation 3), and additive and proportional error model (Equation 4) were evaluated to describe the residual variability: […]
Goodness-of-fit plots were assessed to describe the adequacy of the final PopPK/PD model, including observations vs. population predictions, observations vs. individual predictions, conditional weighted residuals (CWRES) vs. population predictions, and CWRES vs. time., A bootstrap resampling procedure was performed to assess the stability of the final PopPK/PD model. […]

DPP-4 = molecular target: T2, DPP-4 (Homo sapiens, UniProt P27487); assay: Population PK/PD model (Sigmoid-Emax, DPP-4 inhibition); type: in vivo
T2 construct: from tissue; host or cells: human plasma (K2-EDTA blood from T2DM patients)
T2 sequence (P27487 39-766 limits assumed): as above
Text: As a result of data with an absolute value of CWRES greater than 5 being excluded, only 554 blood concentrations of cetagliptin were included in development of the PopPK/PD model. A direct-effect model was used to build the PK/PD model; and the model formula was as follows:
DPP−4 inhibition (%)=Emax*C^γ/(EC50γ+C^γ)

[3] = parameters: method as in PMID 34965609; settings: healthy subjects, cited from earlier work
[4] = Preliminary efficacy evaluation (FPG, 2 h PPG, HbA1c, GA); type: in vivo, human; settings: patients with T2DM
Procedure: Blood samples for determination of fasting plasma glucose (FPG) and 2 hour postprandial plasma glucose (2 h PPG) were collected on day -2, day 7 and day 14. Additionally, blood samples for determination of glycated Hemoglobin A1C (HbA1c) and glycated Albumin (GA) were collected on day -2 and day 14. The changes of the above indexes relative to pre-treatment baseline (day -2) were evaluated and compared to investigate the preliminary efficacy of investigational product.

[5] = final model estimate, patients with T2DM

- accumulation ratio of AUEC0-24h of DPP-4 inhibition (plasma DPP-4 activity; 50 mg once daily): ~1
- DPP-4 inhibition AUEC0-24h (plasma DPP-4 activity; 50 mg oral once daily, day 14): 2010 ± 54.1 h*%
- DPP-4 inhibition Rmax,ss (plasma DPP-4 activity; 50 mg oral once daily, day 14): 89.47 ± 1.12%
- DPP-4 inhibition Rmin,ss (plasma DPP-4 activity; 50 mg oral once daily, day 14): 77.24 ± 4.52%
- DUR80% (duration for DPP-4 inhibition rate of >80%) (plasma DPP-4 activity; 50 mg oral once daily, day 14): 21.9 ± 7.05 h
- E24h (DPP-4 inhibition at 24 h postdose) (plasma DPP-4 activity; 50 mg oral once daily, day 14): 78.43 ± 3.85%
- DUR80% (duration for DPP-4 inhibition rate of >80%) (plasma DPP-4 activity; 50 mg oral once daily, day 14, listed as cetagliptin): 21.9 h
- DPP-4 inhibition TRmax,ss (plasma DPP-4 activity; 50 mg oral once daily, day 14): 2.00 (0.500-6.00) h
- DPP-4 inhibition AUEC0-24h (plasma DPP-4 activity; 50 mg oral, day 1): 1820 ± 77.9 h*%
- DPP-4 inhibition Rmax (plasma DPP-4 activity; 50 mg oral, day 1): 86.39 ± 1.75%
- DUR80% (duration for DPP-4 inhibition rate of >80%) (plasma DPP-4 activity; 50 mg oral, day 1): 8.39 ± 2.37 h
- E24h (DPP-4 inhibition at 24 h postdose) (plasma DPP-4 activity; 50 mg oral, day 1): 68.75 ± 4.75%
- DUR80% (duration for DPP-4 inhibition rate of >80%) (plasma DPP-4 activity; 50 mg oral, day 1, listed as cetagliptin): 8.39 h
- DPP-4 inhibition TRmax (plasma DPP-4 activity; 50 mg oral, day 1): 2.00 (0.500-3.00) h
- sustained DPP-4 inhibition (≥80%) compared with sitagliptin (plasma DPP-4 activity; 100 mg cetagliptin vs 100 mg sitagliptin, multiple administration): much longer
- accumulation ratio of AUEC0-24h of DPP-4 inhibition (plasma DPP-4 activity; 100 mg once daily): ~1
- DPP-4 inhibition AUEC0-24h (plasma DPP-4 activity; 100 mg oral once daily, day 14): 2090 ± 24.4 h*%
- DPP-4 inhibition Rmax,ss (plasma DPP-4 activity; 100 mg oral once daily, day 14): 89.99 ± 0.91%
- DPP-4 inhibition Rmin,ss (plasma DPP-4 activity; 100 mg oral once daily, day 14): 84.28 ± 1.61%
- DUR80% (duration for DPP-4 inhibition rate of >80%) (plasma DPP-4 activity; 100 mg oral once daily, day 14): 32.3 ± 4.53 h
- E24h (DPP-4 inhibition at 24 h postdose) (plasma DPP-4 activity; 100 mg oral once daily, day 14): 83.91 ± 1.39%
- DUR80% (duration for DPP-4 inhibition rate of >80%) (plasma DPP-4 activity; 100 mg oral once daily, day 14, listed as cetagliptin): 32.3 h
- DPP-4 inhibition TRmax,ss (plasma DPP-4 activity; 100 mg oral once daily, day 14): 2.00 (1.00-3.00) h
- DPP-4 inhibition AUEC0-24h (plasma DPP-4 activity; 100 mg oral, day 1): 2000 ± 41.6 h*%
- DPP-4 inhibition Rmax (plasma DPP-4 activity; 100 mg oral, day 1): 88.78 ± 1.04%
- DUR80% (duration for DPP-4 inhibition rate of >80%) (plasma DPP-4 activity; 100 mg oral, day 1): 21.1 ± 3.42 h
- E24h (DPP-4 inhibition at 24 h postdose) (plasma DPP-4 activity; 100 mg oral, day 1): 79.75 ± 2.63%
- DUR80% (duration for DPP-4 inhibition rate of >80%) (plasma DPP-4 activity; 100 mg oral, day 1, listed as cetagliptin): 21.1 h
- DPP-4 inhibition TRmax (plasma DPP-4 activity; 100 mg oral, day 1): 1.00 (1.00-3.00) h
- tvCl2 (typical value of intercompartment clearance) [2]: 9.671 L/h
- tvV (typical value of volume of central compartment distribution) [2]: 8.668 L
- tvEC50 (typical value of concentration for 50% of maximal effect) (DPP-4; bootstrap median): 5.120
- tvEmax (typical value of maximum pharmacodynamic effects) (DPP-4; bootstrap median): 91.78
- tvGam (typical value of Hill coefficient) (DPP-4; bootstrap median): 1.008
- tvEC50 (typical value of concentration for 50% of maximal effect) (DPP-4; [5]): 5.120
- tvEmax (typical value of maximum pharmacodynamic effects) (DPP-4; [5]): 91.78
- tvGam (typical value of Hill coefficient) (DPP-4; [5]): 1.008
SMILES: C[C@@H]1c2cnc(C(F)(F)F)n2CCN1C(=O)C[C@H](N)Cc1cc(F)c(F)cc1F.O=P(O)(O)O [Cetagliptin, cetagliptin]
- dose-limiting toxicity [1]: no dose-limiting toxicity observed
- AUC0-τ (steady state) ([3]; 50 mg): 1440 ng·h/mL
- Cmax (steady state) ([3]; 50 mg): 125 ng/mL
- RAUC ([3]; 50 mg): 1.72
- Tmax (steady state) ([3]; 50 mg): 1.5 h
- t1/2 (steady state) ([3]; 50 mg): 38.8 h
- AUC0-τ (steady state) ([3]; 100 mg): 3120 ng·h/mL
- Cmax (steady state) ([3]; 100 mg): 294 ng/mL
- RAUC ([3]; 100 mg): 1.38
- Tmax (steady state) ([3]; 100 mg): 1.0 h
- t1/2 (steady state) ([3]; 100 mg): 36.6 h
- change of FPG relative to baseline (day -2) ([4]; 50 mg once daily, day 7): 0.49 mmol/L
- mean change value of 2h postprandial blood glucose concentration compared with baseline ([4]; 50 mg once daily, day 7, 2 h after breakfast): -1.54 ± 2.25 mmol/L
- mean change value of 2h postprandial blood glucose concentration compared with baseline ([4]; 50 mg once daily, day 7, 2 h after lunch): -0.29 ± 2.34 mmol/L
- mean change value of 2h postprandial blood glucose concentration compared with baseline ([4]; 50 mg once daily, day 7, 2 h after supper): -1.30 ± 2.50 mmol/L
- change of FPG relative to baseline (day -2) ([4]; 50 mg once daily, day 14): 0.56 mmol/L
- change of GA relative to baseline (day -2) ([4]; 50 mg once daily, day 14): 0.53%
- decrease of HbA1c compared with baseline ([4]; 50 mg once daily, day 14): 0.47%
- mean change value of 2h postprandial blood glucose concentration compared with baseline ([4]; 50 mg once daily, day 14, 2 h after lunch): -0.66 ± 2.26 mmol/L
- mean change value of 2h postprandial blood glucose concentration compared with baseline ([4]; 50 mg once daily, day 14, 2 h after supper): -2.64 ± 2.07 mmol/L
- decrease of 2 h PPG compared with baseline ([4]; 50 mg once daily, day 14 after dinner): 2.64 mmol/L
- change of FPG relative to baseline (day -2) ([4]; 100 mg once daily, day 7): -0.11 mmol/L
- mean change value of 2h postprandial blood glucose concentration compared with baseline ([4]; 100 mg once daily, day 7, 2 h after breakfast): -0.54 ± 2.47 mmol/L
- mean change value of 2h postprandial blood glucose concentration compared with baseline ([4]; 100 mg once daily, day 7, 2 h after lunch): -0.61 ± 2.16 mmol/L
- mean change value of 2h postprandial blood glucose concentration compared with baseline ([4]; 100 mg once daily, day 7, 2 h after supper): 1.64 ± 3.22 mmol/L
- change of FPG relative to baseline (day -2) ([4]; 100 mg once daily, day 14): 0.43 mmol/L
- change of GA relative to baseline (day -2) ([4]; 100 mg once daily, day 14): -1.70%
- decrease of HbA1c compared with baseline ([4]; 100 mg once daily, day 14): 0.35%
- mean change value of 2h postprandial blood glucose concentration compared with baseline ([4]; 100 mg once daily, day 14, 2 h after lunch): 1.16 ± 2.05 mmol/L
- mean change value of 2h postprandial blood glucose concentration compared with baseline ([4]; 100 mg once daily, day 14, 2 h after supper): 2.56 ± 2.48 mmol/L
